Data from US8906966B2, “Medicaments containing panthenol” (priority 2006, dated 2014).

Tests used:
Format in all cases: in vivo, human
inflamed joint = assay: Patient response to a program of injections into or outside the inflamed joint (description)
Method: In some embodiments, a typical dose is an aqueous solution (about 2 milliliters) containing about 500 mg of panthenol (e.g., dexpanthenol) or an aqueous solution (about 4 milliliters) containing about 1000 mg of panthenol (e.g., dexpanthenol). Lower doses can also be used (e.g., 250 mg of panthenol). The aqueous solution can be injected directly into the site of the inflamed joint or outside of the joint as described herein. A program of injections is generally desirable in which dosages similar to that indicated above are given at intervals of a few days (e.g., 2, 3, 4, 5, or 6 days) to about one week. Reduced inflammation and increased freedom of movement is typically noticeable within 48 hours from the initial injection. Using the 1000 mg dose, patients have reported an estimated 80% reduction of pain after the first injection. In certain embodiments, for larger doses (e.g., ≧1000 milligrams), the active ingredient can be provided in two or more closely spaced (e.g., from about 5 minutes to about 1 hour) and smaller doses (e.g., each independently about 400, about 500, or about 600 milligrams).

[1] = tested on: patients treated for traumatic inflammatory conditions; assay: Pain relief following intra-articular or peri-articular injection, Example 1; settings: for Outcome: Improved (%) / Outcome: Improved n / Outcome: No change (%) / Outcome: No change n / Outcome: Not reported (%) / Outcome: Not reported n / Outcome: Temporarily improved (%) / Outcome: Temporarily improved n / Outcome: Worsened (%) / Outcome: Worsened n: 1 g dexpanthenol + 1 ml 0.1% bupivacaine intra- or peri-articular
Method: 62 patients ([…]) aged 21 to 85 years were treated for traumatic inflammatory conditions. The patients were administered one or more intra-articular or peri-articular injections, i.e., into the inflamed joint or nearby area, of dexpanthenol in combination with a long acting local anesthetic [4 ml of an aqueous solution of dexpanthenol Ph Eur (equal to 1 g of dexpanthenol); 1 ml of 0.1% bupivacaine]. In terms of pain relief following injection, efficacy outcome of the treatment is shown in the table below: Injection of facet joints has previously almost invariably been done using MRI to ensure exact placing of the needle. […] By palpating the patient's back in the area of pain and spasm, there is often an area of extreme tenderness about 5 cms from the midline, indicating the site of the inflamed facet joints. If a needle is inserted at right angles into this area, it will be located in or exceedingly close to the facet joint.

[2] = tested on: patients treated for traumatic inflammatory conditions; assay: Safety and tolerability from case notes of the 62 patients, Example 1
Method: 62 patients ([…]) aged 21 to 85 years were treated for traumatic inflammatory conditions. The patients were administered one or more intra-articular or peri-articular injections, i.e., into the inflamed joint or nearby area, of dexpanthenol in combination with a long acting local anesthetic [4 ml of an aqueous solution of dexpanthenol Ph Eur (equal to 1 g of dexpanthenol); 1 ml of 0.1% bupivacaine].
Five (8%) of the 62 patients reported adverse events, including numbness and injection site pain, which resolved with time.

[3] = Total of all sites of complaint, n 98
[4] = site of complaint Back (post-traumatic spondylitis), n 54
[5] = where outcome reported, cohort of 62 patients, with bupivacaine
[6] = of the 62 patients, numbness and injection site pain, resolved with time, with bupivacaine

With `CC(C)(CO)[C@@H](O)C(=O)NCCCO` [panthenol] the “reduction of pain reported by patients” value (inflamed joint; 1000 mg dose, after the first injection, estimated) was ~80% and the “time until reduced inflammation and increased freedom of movement is noticeable” value (inflamed joint; from the initial injection, typical doses 500 mg or 1000 mg in aqueous solution) was ≤ 48 h.
`CC(C)(CO)[C@@H](O)C(=O)NCCCO` [dexpanthenol] was tested, and the “Outcome: Improved (%)” value [1, 3] was 50.0%, the “Outcome: Improved n” value [1, 3] was 49 n and the “Outcome: No change (%)” value [1, 3] was 10.2%. The “Outcome: No change n” value [1, 3] was 10 n, the “Outcome: Not reported (%)” value [1, 3] was 20.4% and the “Outcome: Not reported n” value [1, 3] was 20 n. For the same molecule, the “Outcome: Temporarily improved (%)” value [1, 3] was 13.2%, the “Outcome: Temporarily improved n” value [1, 3] was 13 n and the “Outcome: Worsened (%)” value [1, 3] was 6.1%. For the same molecule, the “Outcome: Worsened n” value [1, 3] was 6 n, the “effectiveness of injection adjacent to the facet joint versus directly into the joint” value ([1]; facet joints, injection without MRI) was “equally effective” and the “Outcome: Improved (%)” value [1, 4] was 55.6%. The “Outcome: Improved n” value [1, 4] was 30 n, the “Outcome: No change (%)” value [1, 4] was 11.1% and the “Outcome: No change n” value [1, 4] was 6 n. The “Outcome: Not reported (%)” value [1, 4] was 16.7%, the “Outcome: Not reported n” value [1, 4] was 9 n and the “Outcome: Temporarily improved (%)” value [1, 4] was 11.1%. The “Outcome: Temporarily improved n” value [1, 4] was 6 n, the “Outcome: Worsened (%)” value [1, 4] was 5.6% and the “Outcome: Worsened n” value [1, 4] was 3 n. The “Outcome: Improved (%)” value ([1]; site of complaint Hip, n 22) was 40.9%, the “Outcome: Improved n” value ([1]; site of complaint Hip, n 22) was 9 n and the “Outcome: No change (%)” value ([1]; site of complaint Hip, n 22) was 9.1%. The “Outcome: No change n” value ([1]; site of complaint Hip, n 22) was 2 n, the “Outcome: Not reported (%)” value ([1]; site of complaint Hip, n 22) was 22.7% and the “Outcome: Not reported n” value ([1]; site of complaint Hip, n 22) was 5 n. The “Outcome: Temporarily improved (%)” value ([1]; site of complaint Hip, n 22) was 18.2%, the “Outcome: Temporarily improved n” value ([1]; site of complaint Hip, n 22) was 4 n and the “Outcome: Worsened (%)” value ([1]; site of complaint Hip, n 22) was 9.1%. The “Outcome: Worsened n” value ([1]; site of complaint Hip, n 22) was 2 n, the “Outcome: Improved (%)” value ([1]; site of complaint Knee, n 8) was 62.5% and the “Outcome: Improved n” value ([1]; site of complaint Knee, n 8) was 5 n. The “Outcome: No change (%)” value ([1]; site of complaint Knee, n 8) was 12.5%, the “Outcome: No change n” value ([1]; site of complaint Knee, n 8) was 1 n and the “Outcome: Not reported (%)” value ([1]; site of complaint Knee, n 8) was 25.0%. For the same molecule, the “Outcome: Not reported n” value ([1]; site of complaint Knee, n 8) was 2 n, the “Outcome: Temporarily improved (%)” value ([1]; site of complaint Knee, n 8) was 0 (0) % and the “Outcome: Temporarily improved n” value ([1]; site of complaint Knee, n 8) was 0 (0) n. For the same molecule, the “Outcome: Worsened (%)” value ([1]; site of complaint Knee, n 8) was 0 (0) %, the “Outcome: Worsened n” value ([1]; site of complaint Knee, n 8) was 0 (0) n and the “Outcome: Improved (%)” value ([1]; site of complaint Other, n 14) was 35.7%. For the same molecule, the “Outcome: Improved n” value ([1]; site of complaint Other, n 14) was 5 n, the “Outcome: No change (%)” value ([1]; site of complaint Other, n 14) was 7.1% and the “Outcome: No change n” value ([1]; site of complaint Other, n 14) was 1 n. The “Outcome: Not reported (%)” value ([1]; site of complaint Other, n 14) was 28.6%, the “Outcome: Not reported n” value ([1]; site of complaint Other, n 14) was 4 n and the “Outcome: Temporarily improved (%)” value ([1]; site of complaint Other, n 14) was 21.4%. The “Outcome: Temporarily improved n” value ([1]; site of complaint Other, n 14) was 3 n, the “Outcome: Worsened (%)” value ([1]; site of complaint Other, n 14) was 7.1% and the “Outcome: Worsened n” value ([1]; site of complaint Other, n 14) was 1 n. The “patients who said that their condition had worsened” value [1, 5] was “less than 10%”, the “share of all patients who benefited from pain relief” value [1, 5] was “about three-quarters” and the safety and tolerability ([2]; injections into the joint or nearby area, in combination with bupivacaine, 62 patients) was “generally safe and well tolerated”. The “patients who reported adverse events (%)” value [2, 6] was 8% and the “patients who reported adverse events (number)” value [2, 6] was “Five”.
